In US6048887A, “Substituted pyrroles” (Hoffmann-La Roche Inc., priority 1999, dated 2000):
pIC50: −log10 of the molar value.

Tests used:
Type in all cases: cell-based
MDA-MB-435 = assay: Antiproliferative Activity In Cell Line MDA-MB-435 (MTT); conditions: Homo sapiens, average of at least three separate experiments
Description: (§1) The estrogen receptor negative epithelial breast carcinoma line (MDA-MB-435) was purchased from American Type Cell Culture Collection (ATCC; Rockville, Md.) and was grown in the medium recommended by ATCC. For analysis of the effect of the test compounds on growth of these cells, the cells were plated at 2000 cells per well in a 96-well tissue culture plate ("test plate"), and were incubated overnight at 37° C. with 5% CO2. The next day, the test compounds were dissolved in 100% dimethyl sulfoxide (DMSO) to yield a 10 mM stock solution. Each compound was diluted with sterile distilled water to 1 mM and then was added to triplicate wells of a 96-well "master plate" containing medium in a sufficient quantity to yield a final concentration of 40 μM. The compounds were serially diluted in medium in the "master plate." One-fourth final volume of the diluted compounds was transferred to duplicate "test plates." DMSO was added to a row of "control cells" such that; the final concentration of DMSO in each well was 0.1%. The "test plates" were returned to the incubator, and 3 days post addition of test compound, one "test plate" was analyzed as described below. Similarly, 5 days after addition of test compound, the second "test plate" also was analyzed as described below.
(§2) 3-(4,5-dimethylthiazole-2-yl)-2,5-diphenyl-2H-tetrazolium bromide (thiazolyl blue; MTT) was added to each well to yield a final concentration of 1 mg/ml. The plate was then incubated at 37° C. for 3 hours. The MTT-containing medium was then removed and 50 μl 100% ethanol was added to each well to dissolve the resulting formazan metabolite. […] Absorbencies were read in a microtiter plate reader (Molecular Dynamics) at a wavelength of 570 nm with a 650 nm reference. Percent inhibition was calculated by subtracting the blank from all wells, then subtracting the division of the average absorbance of each test triplicate by the average of the controls from 1.00. Inhibitory concentrations (IC50 and IC90) were determined from the linear regression of a plot of the logarithm of the concentration versus the percent inhibition.

SW480 = assay: Antiproliferative Activity In Cell Line SW480 (MTT); conditions: Homo sapiens, 144 h, 6 days post addition, average of at least three separate experiments
Description: [The procedure below names another cell line; the source says it served here with some conditions changed.] as §1
as §2, with “inhibition. […]” for “inhibition.”

MDA-MB-435 cells = assay: Effect Of Test Compounds On Cell Cycle (propidium iodide, FACS); conditions: for % Of Cells In Each Cell Cycle Phase: G1 / % Of Cells In Each Cell Cycle Phase: G2/M / % Of Cells In Each Cell Cycle Phase: S: day 1 post addition; for effect on cell cycle (in words): statement in words, summarizing Tables I-IV
Description: For analysis of the effect of the compounds on cell cycle progression, MDA-MB-435 cells (ATCC; Rockville, Md.) were plated at 1×10^6 cells/10 mls per 10 cm dish in the following growth medium: RPMI 1640+10% Heat-Inactivated Fetal Bovine Serum, 2 mM L-glutamine and 50 U/ml pen-strep (all from GIBCO/BRL, Gaithersburg, Md.). The cells were incubated overnight at 37° C. with 5% CO2. The next day, 10 μl of each of the compounds to be tested, in a 100% DMSO solution, was added to individual dishes to obtain /1000× final concentration of the stock solution. In addition, 10 μl 100% DMSO was added to a control dish. The final concentration of DMSO in all plates, including the control, was 0.1%. The plates were returned to the incubator.
Thereafter, at various periods of time, the medium in each plate was removed to a 50 ml centrifuge tube. The cell layer remaining in the dish was then washed with 5 ml of phosphate buffered saline (PBS; GIBCO/BRL). The PBS was removed and combined with the medium in the appropriate tube. The cells were trypsinized for 5 minutes at 37° C., and the solution was collected and combined with the medium and PBS in the appropriate tubes. The tubes were then centrifuged for 5 minutes at 1200 rpm. The cells were fixed by removing the supernatant, tapping the tube to distribute the pellet, then adding 5 mls of cold 70% ethanol while vortexing gently. The cells were then stored at -20° C. for>24 hours.
The cell-containing tubes were taken out of freezer and allowed to sit at room temperature for 20-30 minutes. The tubes were centrifuged at 3000 rpm for 5 minutes. The supernatant was removed, the pellets were washed with 5 ml PBS, and the tubes were centrifuged as above. Subsequently, the supernatant was removed, and the pellet was resuspended in 0.5 ml PBS. Thereafter, 0.5 ml RNAse A (1 mg/ml in PBS) was added to each tube, and the tubes were incubated at 37° C. for 15 minutes. 100 μl propidium iodide (Sigma, St. Louis, Mo.) (1 mg/ml in PBS) was added to each tube, and the tubes were then incubated at room temperature for 2-3 minutes. Each resulting solution was passed through a filter cap tube (Becton Dickinson, San Jose, Calif., #2235).
Samples were read in a FACSort machine (Becton-Dickinson) using the manufacturer's CellQUEST program, and analyzed with the manufacturer is ModFIT software. This measurement provides an indication of the percent of cells in each of the following phases: G0/G1, DNA synthesis (S) and G2/M phases.
The results of a cell cycle progression experiment analyzed at day 1 post addition of test compounds I, II and III are summarized below in Table IV.

HCT-116 = assay: Antiproliferative Activity In Cell Line HCT-116 (MTT); conditions: Homo sapiens, 96 h, 4 days post addition, average of at least three separate experiments
Description: [The procedure below names another cell line; the source says it served here with some conditions changed.] as §1
as §2, with “inhibition. […]” for “inhibition.”

| SMILES | pIC50 (MDA-MB-435) | pIC50 (SW480) | % Of Cells In Each Cell Cycle Phase: G1 (MDA-MB-435 cells; 0.03 μM) | % Of Cells In Each Cell Cycle Phase: G2/M (MDA-MB-435 cells; 0.03 μM) | % Of Cells In Each Cell Cycle Phase: S (MDA-MB-435 cells; 0.03 μM) | % Of Cells In Each Cell Cycle Phase: G1 (MDA-MB-435 cells; 0.1 μM) | % Of Cells In Each Cell Cycle Phase: G2/M (MDA-MB-435 cells; 0.1 μM) | % Of Cells In Each Cell Cycle Phase: S (MDA-MB-435 cells; 0.1 μM) | effect on cell cycle (in words) (MDA-MB-435 cells) | pIC50 (HCT-116) | also measured |
| --- | --- | --- | --- | --- | --- | --- | --- | --- | --- | --- | --- |
| Cn1cc(C2=C(c3c[nH]c4ccccc34)C(=O)NC2=O)c2ccc([N+](=O)[O-])cc21 [Compound I, 3-(1H-Indol-3-yl)-4-(1-methyl-6-nitro-1H-indol-3-yl)-pyrrole-2,5-dione] | 7.52 | 6.70 | 45.30% | 20.03% | 34.67% | 8.27% | 66.52% | 25.21% | cause an accumulation of cells in the G2/m phase of the cell cycle | 6.77 | % Of Cells In Each Cell Cycle Phase: G1 (MDA-MB-435 cells; 0.01 μM): 44.95%; % Of Cells In Each Cell Cycle Phase: G2/M (MDA-MB-435 cells; 0.01 μM): 14.00%; % Of Cells In Each Cell Cycle Phase: S (MDA-MB-435 cells; 0.01 μM): 41.04% |
| Cn1cc(C2=C(c3cn(CO)c4ccccc34)C(=O)NC2=O)c2ccc([N+](=O)[O-])cc21 [Compound II, 3-(1-Hydroxymethyl-1H-indol-3-yl)-4-(1-methyl-6-nitro-1H-indol-3-yl)-pyrrole-2,5-dione] | 7.30 | 6.66 | 45.45% | 16.50% | 38.06% | 15.54% | 60.40% | 24.06% | cause an accumulation of cells in the G2/m phase of the cell cycle | 6.64 | % Of Cells In Each Cell Cycle Phase: G1 (MDA-MB-435 cells; 0.3 μM): 1.11%; % Of Cells In Each Cell Cycle Phase: G2/M (MDA-MB-435 cells; 0.3 μM): 73.90%; % Of Cells In Each Cell Cycle Phase: S (MDA-MB-435 cells; 0.3 μM): 24.99% |
| Cn1cc(C2=C(c3c[nH]c4cc([N+](=O)[O-])ccc34)C(=O)NC2=O)c2ccccc21 [Compound III, 3-(1-Methyl-1H-indol-3-yl)-4-(6-nitro-1H-indol-3-yl)-pyrrole-2,5-dione] | 6.22 | 5.73 | – | – | – | – | – | – | cause an accumulation of cells in the G2/m phase of the cell cycle | 5.78 | % Of Cells In Each Cell Cycle Phase: G1 (MDA-MB-435 cells; 1 μM): 27.21%; % Of Cells In Each Cell Cycle Phase: G2/M (MDA-MB-435 cells; 1 μM): 42.60%; % Of Cells In Each Cell Cycle Phase: S (MDA-MB-435 cells; 1 μM): 30.19%; % Of Cells In Each Cell Cycle Phase: G1 (MDA-MB-435 cells; 3 μM): 3.26%; % Of Cells In Each Cell Cycle Phase: G2/M (MDA-MB-435 cells; 3 μM): 47.99%; % Of Cells In Each Cell Cycle Phase: S (MDA-MB-435 cells; 3 μM): 48.75%; % Of Cells In Each Cell Cycle Phase: G1 (MDA-MB-435 cells; 10 μM): 10.41%; % Of Cells In Each Cell Cycle Phase: G2/M (MDA-MB-435 cells; 10 μM): 54.34%; % Of Cells In Each Cell Cycle Phase: S (MDA-MB-435 cells; 10 μM): 35.25% |
